Source: US10766899B2, “Methods for preparing substituted imidazo[4,5-b]pyrazines” (Cytokinetics, Inc., priority 2006, dated 2020)

Tested on: SKM MF
Assay: SKM MF AC1.4: ATPase of skeletal sarcomeric proteins (actin, tropomyosin, troponin complex, myosin), PK/LDH coupled enzyme system
Format: biochemical
Details: screen at pCa=6.5; † mean value, ‡ median value
Experimental: For example, test compounds can be assayed in a highly parallel fashion by using multiwell plates by placing the compounds either individually in wells or testing them in mixtures. Assay components including the target protein complex, coupling enzymes and substrates, and ATP can then be added to the wells and the absorbance or fluorescence of each well of the plate can be measured with a plate reader.
In some embodiments, the method uses a 384 well plate format and a 25 μL reaction volume. A pyruvate kinase/lactate dehydrogenase coupled enzyme system (Huang T G and Hackney D D. (1994) J Biol Chem 269(23):16493-501) can be used to measure the rate of ATP hydrolysis in each well. As will be appreciated by those in the art, the assay components are added in buffers and reagents. The incubation periods can be optimized to give adequate detection signals over the background. The assay can be done in real time giving the kinetics of ATP hydrolysis which increases the signal to noise ratio of the assay.
Actin was purified by first preparing an ether powder of cardiac muscle (Zot H G and Potter J D. (1981) Preparative Biochemistry 11:381-395) as described below. Subsequently, actin was cycled between the filamentous and soluble state through rounds of centrifugation and dialysis (Spudich J A and Watt S. (1971) J. Biol. Chem. 246:4866-4871). It was stored in the filamentous state at 4° C.
Tropomyosin was extracted from the ether powder and separated from the other proteins based on pH dependent precipitations followed by successive ammonium sulfate cuts at 53% and 65% (Smillie L B. (1981) Methods Enzymol 85 Pt B:234-41). The troponins were isolated as an intact complex of TnC, TnT, and TnI. Ether powder is extracted in a high salt buffer. Successive ammonium sulfate cuts of 30% and 45% were done; the precipitate was solubilized by dialysis into a low salt buffer and then further purified on a DEAE Toyopearl column with a 25-350 mM KCl gradient.
Just prior to screening, the actin, tropomyosin, and troponin complex are mixed together in the desired ratio (e.g., 7:1:1) to achieve maximal calcium regulation of the actin filament. The screen is conducted at a pCa=6.5. This calcium concentration is in the physiological range during muscle contraction.
To measure the generation of ADP during the reaction, a pyruvate kinase/lactate dehydrogenase/NADH coupled enzyme system (PK/LDH) is added to the actin. The myosin is kept separately. The plates are read in real time so that kinetic curves are obtained. These compounds are in DMSO and were already spotted onto the bottoms of 384 well plates at 10 to 40 μg/ml final concentration.
• 1. Obtain ˜1000 g skeletal muscle, such as rabbit skeletal muscle. • 2. Grind twice; extract with 2 L solution A for 15 min while stirring; add 4 L cold H2O, filter through gauze; dilute with cold H2O to ionic strength of 0.04, (about 10-fold); let settle for 3 h; collect precipitate at 7,000 rpm in GSA rotor for 15 min. • 3. Disperse pellet in 220 ml solution B; dialyze overnight against 6 L solution C; slowly add ˜400 ml equal volume cold distilled H2O; stir for 30 min; centrifuge at 10,000 rpm for 10 min in GSA rotor. • 4. Centrifuge supernatant at 19,000 rpm for 1 h. • 5. Dilute supernatant to ionic strength of 0.04 (˜8-fold); let myosin settle overnight; collect about 5-6 L fluffy myosin precipitate by centrifuging at 10,000 rpm for 10 min in GSA rotor. • 6. Resuspend pellet in minimal volume of solution G; dialyze overnight against 2 L solution D; centrifuge at 19,000 rpm for 2 h, in cellulose nitrate tubes; puncture tubes and separate myosin from fat and insoluble pellet. • 7. Dilute supernatant to 5-10 mg/ml and dialyze against solution E extensively, load onto DEAE-sephadex column. • 8. […]

First: CCC(CN)n1c(O)nc2ncc(Br)nc21 (centres unmarked) [1-(1-aminobutan-2-yl)-6-bromo-1H-imidazo[4,5-b]pyrazin-2-ol]
Second: CCC(CC)n1c(O)nc2nc3ccccc3nc21 [1-(pentan-3-yl)-1H-imidazo[4,5-b]quinoxalin-2-ol]
The “SKM MF AC1.4” value of the first is 18-fold lower: 1.1 µM for the first, 19.8 µM for the second.

First: 6-ethyl-1-(ethylpropyl)imidazo[4,5-b]pyrazin-2-ol
Second: CCC(COC)n1c(O)nc2ncc(Br)nc21 (centres unmarked) [6-bromo-1-(1-methoxybutan-2-yl)-1H-imidazo[4,5-b]pyrazin-2-ol]
The “SKM MF AC1.4” value of the first is 1.8-fold higher: 8.58 µM for the first, 4.9 µM for the second.

First: CCOc1cnc2nc(O)n([C@@H](C)c3ccccc3)c2n1 [(S)-6-ethoxy-1-(1-phenylethyl)-1H-imidazo[4,5-b]pyrazin-2-ol]
Second: Oc1nc2ncc(Br)nc2n1Cc1ccccc1 [1-benzyl-6-bromo-1H-imidazo[4,5-b]pyrazin-2-ol]
The “SKM MF AC1.4” value of the first is 2.2-fold lower: 10.6 µM for the first, 23.5 µM for the second.

Going from `CCC(CC)n1c(O)nc2ncc(C#N)nc21` [2-hydroxy-1-(pentan-3-yl)-1H-imidazo[4,5-b]pyrazine-6-carbonitrile] to `CC(C)(C)n1c(O)nc2ncc(Br)nc21` [6-bromo-1-tert-butyl-1H-imidazo[4,5-b]pyrazin-2-ol], the “SKM MF AC1.4” value falls from 36.4 µM to 0.8 µM (45-fold).

Going from `CCC(CC)n1c(O)nc2ncc(Cl)nc21` [6-chloro-1-(ethylpropyl)imidazo[4,5-b]pyrazin-2-ol] to `CC[C@@H](C)n1c(O)nc2ncc(Br)nc21` [(R)-6-bromo-1-sec-butyl-1H-imidazo[4,5-b]pyrazin-2-ol], the “SKM MF AC1.4” value rises from 0.7 µM to 1.5 µM (2.1-fold).

Compared with `C[C@@H](c1ccccc1)n1c(O)nc2ncc(C3=CCCCC3)nc21` [(S)-6-cyclohexenyl-1-(1-phenylethyl)-1H-imidazo[4,5-b]pyrazin-2-ol], `COc1cnc2nc(O)n([C@@H](C)c3ccccc3)c2n1` [(S)-6-methoxy-1-(1-phenylethyl)-1H-imidazo[4,5-b]pyrazin-2-ol] is 3.5-fold lower in “SKM MF AC1.4” value: 31.0 µM for the first, 8.8 µM for the second.

`CCc1cnc2nc(O)n([C@@H](C)c3ccccc3)c2n1` [(S)-1-(1-phenylethyl)-6-ethyl-1H-imidazo[4,5-b]pyrazin-2-ol] and `CSc1cnc2nc(O)n(C3CCCCC3)c2n1` [1-cyclohexyl-6-(methylthio)-1H-imidazo[4,5-b]pyrazin-2-ol] are within 1.5-fold of each other in “SKM MF AC1.4” value: 17.4 µM for the first, 13.9 µM for the second.

First: CCC(CN1CCN(C)CC1)n1c(O)nc2ncc(Br)nc21 (centres unmarked) [6-bromo-1-(1-(4-methylpiperazin-1-yl)butan-2-yl)-1H-imidazo[4,5-b]pyrazin-2-ol]
Second: C/C=C/c1cnc2nc(O)n([C@@H](C)c3ccccc3)c2n1 [(S,E)-1-(1-phenylethyl)-6-(prop-1-enyl)-1H-imidazo[4,5-b]pyrazin-2-ol]
The “SKM MF AC1.4” value of the first is 9.3-fold higher: 14.9 µM for the first, 1.6 µM for the second.

Compared with `C[C@H](c1ccccc1)n1c(O)nc2ncc(Br)nc21` [(R)-6-bromo-1-(1-phenylethyl)-1H-imidazo[4,5-b]pyrazin-2-ol], `CC[C@H](CO)n1c(O)nc2ncc(Br)nc21` [(R)-6-bromo-1-(1-hydroxybutan-2-yl)-1H-imidazo[4,5-b]pyrazin-2-ol] is 2.2-fold lower in “SKM MF AC1.4” value: 2.4 µM for the first, 1.1 µM for the second.

Compared with `C=Cc1cnc2nc(O)n(C(CC)CC)c2n1` [1-(ethylpropyl)-6-vinylimidazo[4,5-b]pyrazin-2-ol], `Oc1nc2ncc(Br)nc2n1C1CCCCC1` [6-bromo-1-cyclohexyl-1H-imidazo[4,5-b]pyrazin-2-ol] is 4.5-fold higher in “SKM MF AC1.4” value: 2.3 µM for the first, 10.4 µM for the second.

First: CCC/C=C\Cc1cnc2nc(O)n([C@@H](C)c3ccccc3)c2n1 [(S,Z)-6-(hex-2-enyl)-1-(1-phenylethyl)-1H-imidazo[4,5-b]pyrazin-2-ol]
Second: CCC(CN(C)C)n1c(O)nc2ncc(Br)nc21 (centres unmarked) [6-bromo-1-(1-(dimethylamino)butan-2-yl)-1H-imidazo[4,5-b]pyrazin-2-ol]
The “SKM MF AC1.4” value of the first is 14-fold lower: 3.1 µM for the first, 43.8 µM for the second.

With `C/C=C\c1cnc2nc(O)n([C@@H](C)c3ccccc3)c2n1` [(S,Z)-1-(1-phenylethyl)-6-(prop-1-enyl)-1H-imidazo[4,5-b]pyrazin-2-ol] the “SKM MF AC1.4” value was 1.0 µM.

In the case of `CCC(CC)n1c(O)nc2nccnc21` [1-(pentan-3-yl)-1H-imidazo[4,5-b]pyrazin-2-ol], the “SKM MF AC1.4” value is reported as 16.0^† μM.
`CC[C@@H](CN1CCOCC1)n1c(O)nc2ncc(Br)nc21` [(S)-6-bromo-1-(1-morpholinobutan-2-yl)-1H-imidazo[4,5-b]pyrazin-2-ol] was tested, and the “SKM MF AC1.4” value was over 49 µM.
In the case of `C[C@@H](CN1CCOCC1)n1c(O)nc2ncc(Br)nc21` [(S)-6-bromo-1-(1-morpholinopropan-2-yl)-1H-imidazo[4,5-b]pyrazin-2-ol], the “SKM MF AC1.4” value is reported as over 49 µM.
With `CCC(CC)n1c(O)nc2ncc(O)nc21` [1-(pentan-3-yl)-1H-imidazo[4,5-b]pyrazine-2,6-diol] the “SKM MF AC1.4” value was over 49 µM.
With `CC(C)(CN1CCOCC1)n1c(O)nc2ncc(Br)nc21` [6-bromo-1-(2-methyl-1-morpholinopropan-2-yl)-1H-imidazo[4,5-b]pyrazin-2-ol] the “SKM MF AC1.4” value was 16.4^‡ μM.
For `CCC(CN1CCN(S(C)(=O)=O)CC1)n1c(O)nc2ncc(Br)nc21` (centres unmarked) [6-bromo-1-(1-(4-(methylsulfonyl)piperazin-1-yl)butan-2-yl)-1H-imidazo[4,5-b]pyrazin-2-ol], the “SKM MF AC1.4” value was 3.2^† μM.

Same assay, conditions: screen at pCa=6.5; † mean value, ‡ median value; listed as 1-(1,1-dimethyl-2-morpholin-4-ylethyl)-6-bromoimidazo[4,5-b]pyrazin-2-ol

With `CC(C)(CN1CCOCC1)n1c(O)nc2ncc(Br)nc21` [6-bromo-1-(2-methyl-1-morpholinopropan-2-yl)-1H-imidazo[4,5-b]pyrazin-2-ol] the “SKM MF AC1.4” value was 19.11 µM.

Same assay, conditions: screen at pCa=6.5; † mean value, ‡ median value; listed as 6-bromo-1-(2-methyl-1-morpholinopropan-2-yl)-1H-imidazo[4,5-b]pyrazin-2(3H)-one

In the case of `CC(C)(CN1CCOCC1)n1c(O)nc2ncc(Br)nc21` [6-bromo-1-(2-methyl-1-morpholinopropan-2-yl)-1H-imidazo[4,5-b]pyrazin-2-ol], the “SKM MF AC1.4” value is reported as 16.4^‡ μM.

Tested on: rats with induced experimental autoimmune myasthenia gravis (EAMG)
Assay: Validation of EAMG model (neostigmine), grip strength
Format: in vivo, Sprague-Dawley rats
Details: 0.2 mg/kg intraperitoneally, 5 minutes after treatment
Experimental: Female Sprague-Dawley rats (200-300 g) were purchased from Charles River Laboratories and given a minimum 72 hours acclimation period. Experimental autoimmune Myasthenia Gravis (EAMG) was induced by a single intra-peritoneal injection of 500 μg/kg of AChRα1/3/5 antibody (SC-58604, Santa Cruz Biotechnology, CA, USA). Fore- and hind-limb grip measurements were acquired in triplicate with a 5 kg Dual Sensor Grip Meter (Columbus Instruments, Ohio, USA) as described in Example 1. Baseline body weight and fore- and hind-grip strength of animals was measured before inducing EAMG.
Selected rats were divided into vehicle and compound treated groups. Neostigmine (an acetylcholinesterase inhibitor that is used clinically for the assessment and treatment of myasthenia gravis) was administered to test animals intraperitoneally at 0.2 mg/kg. After dosing, rats were reassessed for grip strength at 5, 10 and 20 minutes.

`CN(C)C(=O)Oc1cccc([N+](C)(C)C)c1` [neostigmine] was tested, and the “forelimb grip strength (FIG. 2)” value was “increased forelimb grip strength”.
